{"source": "patent US20100298141A1", "about": "“SUBSTITUTED PYRIDINE N-OXIDE HERBICIDES” (E. I. DU PONT DE NEMOURS AND COMPANY, priority 2007, published 2010)", "test_in_all_cases": "Test F preemergence test", "key": {"large crabgrass": {"tested_on": "large crabgrass", "assay_type": "in vivo, Digitaria sanguinalis", "settings": "scale 0 to 100", "procedure,_shortened": "(§1)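 Compounds in a non-phytotoxic solvent formulation with surfactant were applied before emergence after sowing, or, for sugarcane, also postemergence. Evaluation was visual, against controls, after 14 to 21 greenhouse days.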"}, "green foxtail": {"tested_on": "green foxtail", "assay_type": "in vivo, Setaria viridis", "settings": "scale 0 to 100", "procedure,_shortened": "as §1"}, "field bindweed": {"tested_on": "field bindweed", "assay_type": "in vivo, Convolvulus arvensis", "settings": "scale 0 to 100", "procedure,_shortened": "as §1"}, "pitted morningglory": {"tested_on": "pitted morningglory", "assay_type": "in vivo, Ipomoea lacunosa", "settings": "scale 0 to 100", "source_text": "(§2) Seeds of plant species selected from bermudagrass (Cynodon dactylon), Surinam grass (Brachiaria decumbens), large crabgrass (Digitaria sanguinalis), green foxtail (Setaria viridis), goosegrass (Eleusine indica), johnsongrass (Sorghum halepense), kochia (Kochia scoparia), pitted morningglory (Ipomoea lacunosa), purple nutsedge (Cyperus rotundus), common ragweed (Ambrosia elation), mustard (Brassica nigra), guineagrass (Panicum maximum), […] (Paspalum dilatatum), barnyardgrass (Echinochloa crus-galli), southern sandbur (Cenchrus echinatus), common sowthistle (Sonchus oleraceous), prickly […] spinosa), Italian ryegrass (Lolium multiflorum), common purslane (Portulaca oleracea), broadleaf signalgrass (Brachiaria platyphylla), common groundsel (Senecio vulgaris), common chickweed (Stellaria media), Virginia dayflower (Commelina virginica), annual bluegrass (Poa annua), naked crabgrass (Digitaria nuda), […] cochinchinensis), quackgrass (Elytrigia repens), Canada horseweed (Conyza canadensis), field bindweed (Convolvulus arvensis), […] (Bidens bipinnata), common mallow (Malva sylvestris), Russian thistle (Salsola kali), and sugarcane (Saccharum officinarum) were planted and treated preemergence with test chemicals formulated in a non-phytotoxic solvent mixture which included a surfactant. At a different time, sugarcane was treated with postemergence applications of some of the test chemicals formulated in the same manner. Plants were approximately 3- to 4-leaf stage for the postemergence treatments. Treated plants and controls were maintained in a greenhouse for 14 to 21 days, after which time all species were compared to controls and visually evaluated. […] A dash (-) response means no test result."}, "common mallow": {"tested_on": "common mallow", "assay_type": "in vivo, Malva sylvestris", "settings": "scale 0 to 100", "source_text": "as §2"}, "common ragweed": {"tested_on": "common ragweed", "assay_type": "in vivo, Ambrosia elation", "settings": "scale 0 to 100", "procedure,_shortened": "as §1"}, "bermudagrass": {"tested_on": "bermudagrass", "assay_type": "in vivo, Cynodon dactylon", "settings": "scale 0 to 100; for Plant response rating, Bermudagrass: Preemergence", "procedure,_shortened": "as §1"}, "barnyardgrass": {"tested_on": "barnyardgrass", "assay_type": "in vivo, Echinochloa crus-galli", "settings": "scale 0 to 100", "procedure,_shortened": "as §1"}, "common purslane": {"tested_on": "common purslane", "assay_type": "in vivo, Portulaca oleracea", "settings": "scale 0 to 100", "procedure,_shortened": "as §1"}, "Surinam grass": {"tested_on": "Surinam grass", "assay_type": "in vivo, Brachiaria decumbens", "settings": "scale 0 to 100", "procedure,_shortened": "as §1"}, "naked crabgrass": {"tested_on": "naked crabgrass", "assay_type": "in vivo, Digitaria nuda", "settings": "scale 0 to 100", "procedure,_shortened": "as §1"}, "prickly sida": {"tested_on": "prickly sida", "assay_type": "in vivo, Sida spinosa", "settings": "scale 0 to 100", "procedure,_shortened": "as §1"}, "southern sandbur": {"tested_on": "southern sandbur", "assay_type": "in vivo, Cenchrus echinatus", "settings": "scale 0 to 100", "procedure,_shortened": "as §1"}, "Italian ryegrass": {"tested_on": "Italian ryegrass", "assay_type": "in vivo, Lolium multiflorum", "settings": "scale 0 to 100", "procedure,_shortened": "as §1"}, "annual bluegrass": {"tested_on": "annual bluegrass", "assay_type": "in vivo, Poa annua", "settings": "scale 0 to 100", "procedure,_shortened": "as §1"}, "quackgrass": {"tested_on": "quackgrass", "assay_type": "in vivo, Elytrigia repens", "settings": "scale 0 to 100", "procedure,_shortened": "as §1"}, "guineagrass": {"tested_on": "guineagrass", "assay_type": "in vivo, Panicum maximum", "settings": "scale 0 to 100", "procedure,_shortened": "as §1"}, "mustard": {"tested_on": "mustard", "assay_type": "in vivo, Brassica nigra", "settings": "scale 0 to 100", "procedure,_shortened": "as §1"}}}
{"compound": "Cn1nc(C(F)(F)F)c(CS(=O)(=O)c2cccc[n+]2[O-])c1OCC(F)(F)F", "note": "[Compound 29]", "values": [{"measurement": "Crabgrass, Large plant response rating", "setting": "large crabgrass; 62 g ai/ha, Preemergence", "result": 95}, {"measurement": "Crabgrass, Large plant response rating", "setting": "large crabgrass; 125 g ai/ha, preemergence", "result": 100}, {"measurement": "Plant response rating, Crabgrass, Large", "setting": "large crabgrass; Preemergence, 16 g ai/ha", "result": 15}, {"measurement": "Plant response rating, Crabgrass, Large", "setting": "large crabgrass; Preemergence, 31 g ai/ha", "result": 95}, {"measurement": "Foxtail, Green plant response rating", "setting": "green foxtail; 62 g ai/ha, Preemergence", "result": 100}, {"measurement": "Foxtail, Green plant response rating", "setting": "green foxtail; 125 g ai/ha, preemergence", "result": 100}, {"measurement": "Plant response rating, Foxtail, Green", "setting": "green foxtail; Preemergence, 16 g ai/ha", "result": 25}, {"measurement": "Plant response rating, Foxtail, Green", "setting": "green foxtail; Preemergence, 31 g ai/ha", "result": 75}, {"measurement": "Field Bindweed plant response rating", "setting": "field bindweed; 62 g ai/ha, Preemergence", "result": 0}, {"measurement": "Field Bindweed plant response rating", "setting": "field bindweed; 125 g ai/ha, preemergence", "result": 0}, {"measurement": "Plant response rating, Field Bindweed", "setting": "field bindweed; Preemergence, 16 g ai/ha", "result": 0}, {"measurement": "Plant response rating, Field Bindweed", "setting": "field bindweed; Preemergence, 31 g ai/ha", "result": 0}, {"measurement": "Morningglory plant response rating", "setting": "pitted morningglory; 62 g ai/ha, Preemergence", "result": 60}, {"measurement": "Morningglory plant response rating", "setting": "pitted morningglory; 125 g ai/ha, preemergence", "result": 80}, {"measurement": "Plant response rating, Morningglory", "setting": "pitted morningglory; Preemergence, 16 g ai/ha", "result": 0}, {"measurement": "Plant response rating, Morningglory", "setting": "pitted morningglory; Preemergence, 31 g ai/ha", "result": 0}, {"measurement": "Mallow plant response rating", "setting": "common mallow; 62 g ai/ha, Preemergence", "result": 100}, {"measurement": "Mallow plant response rating", "setting": "common mallow; 125 g ai/ha, preemergence", "result": 100}, {"measurement": "Plant response rating, Mallow", "setting": "common mallow; Preemergence, 16 g ai/ha", "result": 0}, {"measurement": "Plant response rating, Mallow", "setting": "common mallow; Preemergence, 31 g ai/ha", "result": 0}, {"measurement": "Ragweed plant response rating", "setting": "common ragweed; 62 g ai/ha, Preemergence", "result": 70}, {"measurement": "Ragweed plant response rating", "setting": "common ragweed; 125 g ai/ha, preemergence", "result": 80}, {"measurement": "Plant response rating, Ragweed", "setting": "common ragweed; Preemergence, 16 g ai/ha", "result": 0}, {"measurement": "Plant response rating, Ragweed", "setting": "common ragweed; Preemergence, 31 g ai/ha", "result": 40}, {"measurement": "Bermudagrass plant response rating", "setting": "bermudagrass; 125 g ai/ha, preemergence", "result": 100}, {"measurement": "Plant response rating, Bermudagrass", "setting": "bermudagrass; 16 g ai/ha", "result": 40}, {"measurement": "Plant response rating, Bermudagrass", "setting": "bermudagrass; 31 g ai/ha", "result": 90}, {"measurement": "Barnyardgrass plant response rating", "setting": "barnyardgrass; 62 g ai/ha, Preemergence", "result": 100}, {"measurement": "Barnyardgrass plant response rating", "setting": "barnyardgrass; 125 g ai/ha, preemergence", "result": 100}, {"measurement": "Plant response rating, Barnyardgrass", "setting": "barnyardgrass; Preemergence, 16 g ai/ha", "result": 50}, {"measurement": "Plant response rating, Barnyardgrass", "setting": "barnyardgrass; Preemergence, 31 g ai/ha", "result": 100}, {"measurement": "Purslane plant response rating", "setting": "common purslane; 62 g ai/ha, Preemergence", "result": 30}, {"measurement": "Purslane plant response rating", "setting": "common purslane; 125 g ai/ha, preemergence", "result": 30}, {"measurement": "Plant response rating, Purslane", "setting": "common purslane; Preemergence, 16 g ai/ha", "result": 0}, {"measurement": "Plant response rating, Purslane", "setting": "common purslane; Preemergence, 31 g ai/ha", "result": 0}, {"measurement": "Surinam Grass plant response rating", "setting": "Surinam grass; 62 g ai/ha, Preemergence", "result": 100}, {"measurement": "Surinam Grass plant response rating", "setting": "Surinam grass; 125 g ai/ha, preemergence", "result": 100}, {"measurement": "Plant response rating, Surinam Grass", "setting": "Surinam grass; Preemergence, 31 g ai/ha", "result": 75}, {"measurement": "Crabgrass, Naked plant response rating", "setting": "naked crabgrass; 62 g ai/ha, Preemergence", "result": 100}, {"measurement": "Crabgrass, Naked plant response rating", "setting": "naked crabgrass; 125 g ai/ha, preemergence", "result": 100}, {"measurement": "Plant response rating, Crabgrass, Naked", "setting": "naked crabgrass; Preemergence, 31 g ai/ha", "result": 80}, {"measurement": "Prickly Sida plant response rating", "setting": "prickly sida; 62 g ai/ha, Preemergence", "result": 95}, {"measurement": "Prickly Sida plant response rating", "setting": "prickly sida; 125 g ai/ha, preemergence", "result": 100}, {"measurement": "Plant response rating, Prickly Sida", "setting": "prickly sida; Preemergence, 16 g ai/ha", "result": 40}, {"measurement": "Plant response rating, Prickly Sida", "setting": "prickly sida; Preemergence, 31 g ai/ha", "result": 95}, {"measurement": "Sandbur plant response rating", "setting": "southern sandbur; 62 g ai/ha, Preemergence", "result": 100}, {"measurement": "Sandbur plant response rating", "setting": "southern sandbur; 125 g ai/ha, preemergence", "result": 100}, {"measurement": "Plant response rating, Sandbur", "setting": "southern sandbur; Preemergence, 31 g ai/ha", "result": 100}, {"measurement": "Ryegrass, Italian plant response rating", "setting": "Italian ryegrass; 62 g ai/ha, Preemergence", "result": 100}, {"measurement": "Ryegrass, Italian plant response rating", "setting": "Italian ryegrass; 125 g ai/ha, preemergence", "result": 100}, {"measurement": "Plant response rating, Ryegrass, Italian", "setting": "Italian ryegrass; Preemergence, 16 g ai/ha", "result": 65}, {"measurement": "Plant response rating, Ryegrass, Italian", "setting": "Italian ryegrass; Preemergence, 31 g ai/ha", "result": 100}, {"measurement": "Bluegrass plant response rating", "setting": "annual bluegrass; 62 g ai/ha, Preemergence", "result": 98}, {"measurement": "Bluegrass plant response rating", "setting": "annual bluegrass; 125 g ai/ha, preemergence", "result": 100}, {"measurement": "Plant response rating, Bluegrass", "setting": "annual bluegrass; Preemergence, 16 g ai/ha", "result": 20}, {"measurement": "Plant response rating, Bluegrass", "setting": "annual bluegrass; Preemergence, 31 g ai/ha", "result": 75}, {"measurement": "Quackgrass plant response rating", "setting": "quackgrass; 62 g ai/ha, Preemergence", "result": 95}, {"measurement": "Quackgrass plant response rating", "setting": "quackgrass; 125 g ai/ha, preemergence", "result": 95}, {"measurement": "Plant response rating, Quackgrass", "setting": "quackgrass; Preemergence, 16 g ai/ha", "result": 0}, {"measurement": "Plant response rating, Quackgrass", "setting": "quackgrass; Preemergence, 31 g ai/ha", "result": 30}, {"measurement": "Guineagrass plant response rating", "setting": "guineagrass; 62 g ai/ha, Preemergence", "result": 100}, {"measurement": "Guineagrass plant response rating", "setting": "guineagrass; 125 g ai/ha, preemergence", "result": 100}, {"measurement": "Plant response rating, Guineagrass", "setting": "guineagrass; Preemergence, 16 g ai/ha", "result": 90}, {"measurement": "Plant response rating, Guineagrass", "setting": "guineagrass; Preemergence, 31 g ai/ha", "result": 100}, {"measurement": "Black Mustard plant response rating", "setting": "mustard; 62 g ai/ha, Preemergence", "result": 100}, {"measurement": "Black Mustard plant response rating", "setting": "mustard; 125 g ai/ha, preemergence", "result": 100}, {"measurement": "Plant response rating, Black Mustard", "setting": "mustard; Preemergence, 16 g ai/ha", "result": 40}, {"measurement": "Plant response rating, Black Mustard", "setting": "mustard; Preemergence, 31 g ai/ha", "result": 100}]}
